# Residues, ends and D or L forms follow the SMILES beside them. No end group written: not given here.
# Legend:
# Assay type in all cases: cell-based
# Cdyn = Cdyn (Homo sapiens, UniProt P61073, L41A/H113N/S178A); experiment: Gαi BRET of peptides on Cdyn; design: Gi BRET (dEC50): unit not given here; conditions: Cdyn receptor; for Gi BRET (dEC50): vs WT:WT
# Protocol: (§1) Lyophilized peptides were stored at −80 °C and resuspended in assay buffer on the day of the experiment.
# (§2) 40,000 HEK 293T cells were transiently transfected with WT or variant HA3-CXCR4, Gαi1−91-Rluc8, Gβ3-WT, and Gγ9-GFP2 in pcDNA3.1(+) at a ratio of 10:1:10:5 respectively. Cells were first seeded in 100 µL DMEM 10% FBS in a poly-lysine coated, white-walled, white-bottom 96-well plate. Directly after cell loading, 50 µL of the mixture containing Lipofectamine 2000 and the DNA was added on top of the cells. The cells were then left to incubate at 37 °C, 5% CO2, and 95% relative humidity for 20 h, after which, 150 µL media was refreshed. Cells were assayed 48 h post-transfection. Cells were washed with 150 µL PBS, then 40 µL BRET buffer (HBSS, 0.2% Glucose) was added to each well. Coelenterazine 400a was first added at a final concentration of 2.5 µM and BRET ratios were measured once using Mithras[2] LB 943 plate reader. After the first measurement, 40 µL of a 3x concentrated agonist solution was added to each well, and BRET ratios were measured for another 30 min using a Mithras[2] LB 943 plate reader. Mock-transfected controls were subtracted from the data. Maximum values averaged from 3 replicates were then plotted against selected concentrations and fitted to a sigmoidal curve using GraphPad Prism v9.
# Csedy = Csedy (Homo sapiens, UniProt P61073); experiment: Gαi BRET of peptides on Csedy; conditions: Csedy receptor; for Gi BRET (dEC50): vs WT:WT
# Protocol: as §1, §2
# Gαi activation = experiment: Gαi dissociation BRET of designed receptors with WT CXCL12(1-17) peptide; design: Gαi BRET response: scale not given here; conditions: HEK 293T
# Protocol: as §1, §2
# WT CXCR4 = WT CXCR4 (Homo sapiens, UniProt P61073); experiment: Gαi BRET of peptides on WT CXCR4; conditions: for Gi BRET (dEC50): vs WT:WT, WT receptor
# Protocol: as §1, §2
# Csel2 = experiment: Gαi BRET of peptides on Csel2; conditions: for Gi BRET (dEC50): vs WT:WT, Csel2 receptor
# Protocol: as §1, §2
# [1] = test system: Csedy transduced primary human T cells; experiment: Boyden chamber migration of T cells transduced with Csedy; design: key: migrated cells toward chemokine / migrated cells without chemoattractant; conditions: 100 nM full-length chemokine vs no chemoattractant, peak over 8 h
# Protocol: (§3) Full-length chemokine purification
# (§4) CXCL12 and variants expressed in pMS211 (pET21a-based) construct and purified as previously described. N-terminal His-tag and leader sequence cleaved with enterokinase to produce a final product with the correct N-terminal sequence. The final lyophilized protein was resuspended at 1 mg/ml in 0.1% BSA. Aliquots were snap frozen and stored at −80 °C.
# (§5) Generation of human T cells expressing CXCR4 WT or variants
# (§6) Peripheral blood mononuclear cells (PBMCs) were isolated from buffy coats by density gradient centrifugation (Lymphoprep, StemCell ref: 07851) and activated on plates coated with anti-CD3 ([…], Biolegend, ref: 317347, clone: OKT3) and anti-CD28 ([…], Biolegend, ref: 302934, clone: CD28.2) antibodies in T cell media (RPMI 10% FBS, 2 mM L-Glutamine, 1% Penicillin-Streptomycin) with IL-15 and IL-7 (Miltenyi Biotec, 10 ng/ml each, ref: 130-095-362 and ref: 130-095-765 respectively). The day before transduction, non-cell tissue culture treated 24-well plate (Greiner Bio-One, ref: 662102) was coated with retronectin (Takara Bio, ref: T100B) in PBS (7 μg/ml, 1 ml per well), and incubated overnight at 4 °C. Three days after activation, retronectin was removed and the plate was blocked with RPMI 10% FBS for 15 min at 37 °C. Then, media was removed and retroviral supernatant was centrifuged at 2000 × g, 1 h, 32 °C on retronectin-coated plates. Retroviral supernatant was gently removed and activated T cell suspension at 0.15 E^6 cells/ml was added, and centrifuged at 1000 × g, 10 min, 21 °C. Cells were incubated at 37 °C, 5% CO2, and 95% relative humidity for 3 days. After 48–72 h of transduction, T cells were harvested and further expanded in T cell media containing IL-7 and IL-15. Transduced T cells were positively selected with a PE selection kit (EasySep, ref: 17684) and an anti-HA PE-conjugated antibody (Biolegend, ref: 901518, clone: 16B12) at a 1:50 dilution to enrich transduced T cells. Enrichment of surface expression in PE-selected cells was confirmed by flow cytometry using a BD FACS LSR II cytometer (BD Biosciences) and analyzed with FlowJo software (BD Biosciences).
# (§7) T cells transduced and selected for expression of CXCR4 variants from 3 to 6 donors were stained with 1 µM Vybrant DiO cell-labeling solution (Thermo, ref: V22886) in serum-free RPMI 1640 + GlutaMax. 40,000 cells in 75 µL were seeded in each well of 96-well Boyden chambers with 5.0 µm pores (Corning, ref: 3388)[44]. Reservoirs were filled with 200 µL serum-free RPMI 1640 + GlutaMax without chemoattractant or supplemented with 100 nM chemokine. The bottom of the attractant reservoir was imaged for migrated cells for 8 h with a Cytation 5 BioSpa (Biotek) at 37 °C with 5% CO2. Fluorescent spots were counted over time and compared to the no-chemoattractant control to calculate the migration index (# migrated cells towards chemoattractant / # migrated cells in absence of chemoattractant). The peak migration indices averaged between 3 technical replicates for each transduced donor per chemoattractant concentration were plotted.
# [2] = test system: WT CXCR4 transduced primary human T cells; experiment: Boyden chamber migration of T cells transduced with WT CXCR4; design: key to Migration Index: migrated cells toward chemokine / migrated cells without chemoattractant; conditions: for Migration Index: 100 nM full-length chemokine vs no chemoattractant, peak over 8 h, WT receptor
# Protocol: as §3, §4, §5, §6, §7
# [3] = test system: Csel2 transduced primary human T cells; experiment: Boyden chamber migration of T cells transduced with Csel2; design: key: migrated cells toward chemokine / migrated cells without chemoattractant; conditions: 100 nM full-length chemokine vs no chemoattractant, peak over 8 h
# Protocol: as §3, §4, §5, §6, §7
# [4] = test system: Cdyn transduced primary human T cells; experiment: Boyden chamber migration of T cells transduced with Cdyn; conditions: 100 nM full-length chemokine vs no chemoattractant, peak over 8 h
# Protocol: as §3, §4, §5, §6, §7
# Cdyn, sequence (P61073 whole entry L41A/H113N/S178A): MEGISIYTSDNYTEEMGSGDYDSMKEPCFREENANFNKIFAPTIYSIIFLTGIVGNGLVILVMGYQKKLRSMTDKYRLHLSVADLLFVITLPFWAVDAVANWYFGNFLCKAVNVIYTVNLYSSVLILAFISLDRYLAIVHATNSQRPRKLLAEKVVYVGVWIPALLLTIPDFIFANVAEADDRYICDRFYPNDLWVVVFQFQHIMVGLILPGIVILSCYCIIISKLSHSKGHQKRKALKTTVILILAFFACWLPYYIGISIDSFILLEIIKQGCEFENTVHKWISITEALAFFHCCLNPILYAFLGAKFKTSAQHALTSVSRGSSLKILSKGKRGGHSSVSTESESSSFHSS
# WT CXCR4, sequence (P61073 whole entry): as the sequence (P61073 whole entry L41A/H113N/S178A) above, with A41L, N113H, A178S counted along it
# Csedy, sequence (P61073 whole entry): as the sequence (P61073 whole entry L41A/H113N/S178A) above, with A41L, N113H, A178S counted along it
compound,measurement,setting,value
CC(C)C[C@H](NC(=O)[C@H](CO)NC(=O)[C@H](Cc1ccc(O)cc1)NC(=O)[C@@H]1CCCN1C(=O)[C@@H](N)CCCCN)C(=O)N[C@@H](CO)C(=O)N[C@@H](Cc1ccc(O)cc1)C(=O)N[C@@H](CCCNC(=N)N)C(=O)N[C@@H](CS)C(=O)N1CCC[C@H]1C(=O)N[C@@H](CS)C(=O)N[C@@H](CCCNC(=N)N)C(=O)N[C@@H](Cc1ccccc1)C(=O)N[C@@H](Cc1ccccc1)C(=O)N[C@@H](CCC(=O)O)C(=O)N[C@@H](CO)C(=O)N[C@@H](Cc1c[nH]cn1)C(N)=O [V3Y] (H-KPYSLSYRCPCRFFESH-NH2; N-terminus assumed),enhanced potency,Cdyn; vs WT receptor–peptide pair,more than 80 -fold
same,Gi BRET (dEC50),Cdyn; replicate 1,-2.1375
same,Gi BRET (dEC50),Cdyn; replicate 2,-1.6575
same,Gi BRET (dEC50),Cdyn; replicate 3,-1.8525
same,Gi BRET (dEC50),Cdyn; replicate 4,-1.6695
same,Gi BRET (dEC50),Cdyn; replicate 5,-1.8605
"V3W-Y7L: CXCL12(1-17) peptide variant V3W-Y7L (KPWSLSLRCPCRFFESH-NH2; cysteine pairing not given here; UniProt P48061 22-38, looked up, variant V3W Y7L)","Efficacy, Gi",Csedy; mean,135.5 %WT-WT
same,Gi BRET (dEC50),Csedy; replicate 1,-1.6525
same,Gi BRET (dEC50),Csedy; replicate 2,-2.5125
same,Gi BRET (dEC50),Csedy; replicate 3,-1.456
"V3W: CXCL12(1-17) peptide variant V3W (KPWSLSYRCPCRFFESH-NH2; cysteine pairing not given here; UniProt P48061 22-38, looked up, variant V3W)","Efficacy, Gi",Cdyn; mean,130.6 %WT-WT
same,Gi BRET (dEC50),Cdyn; replicate 1,-1.8535
same,Gi BRET (dEC50),Cdyn; replicate 2,-2.0125
same,Gi BRET (dEC50),Cdyn; replicate 3,-2.163
WT CXCR4: WT CXCR4 with an N-terminal 3xHA-tag,Gαi BRET response,"Gαi activation; log[WT CXCL12(1-17)] -4.17653, replicate 1",84.4534
same,Gαi BRET response,"Gαi activation; log[WT CXCL12(1-17)] -4.17653, replicate 2",83.4696
same,Gαi BRET response,"Gαi activation; log[WT CXCL12(1-17)] -4.65365, replicate 1",62.5022
same,Gαi BRET response,"Gαi activation; log[WT CXCL12(1-17)] -4.65365, replicate 2",62.6195
same,Gαi BRET response,"Gαi activation; log[WT CXCL12(1-17)] -5.13077, replicate 1",35.993
same,Gαi BRET response,"Gαi activation; log[WT CXCL12(1-17)] -5.13077, replicate 2",39.2443
same,Gαi BRET response,"Gαi activation; log[WT CXCL12(1-17)] -5.60789, replicate 1",12.5404
same,Gαi BRET response,"Gαi activation; log[WT CXCL12(1-17)] -5.60789, replicate 2",16.9401
same,Gαi BRET response,"Gαi activation; log[WT CXCL12(1-17)] -6.08501, replicate 1",10.2917
same,Gαi BRET response,"Gαi activation; log[WT CXCL12(1-17)] -6.08501, replicate 2",3.156
same,Gαi BRET response,"Gαi activation; log[WT CXCL12(1-17)] -8, replicate 1",-1.029
same,Gαi BRET response,"Gαi activation; log[WT CXCL12(1-17)] -8, replicate 2",1.036
"Y7L: CXCL12(1-17) peptide variant, Leu at P7 (KPVSLSLRCPCRFFESH-NH2; cysteine pairing not given here)",decrease in overall Gαi response,WT CXCR4; WT receptor (Fig. 3a),18%
same,Gi BRET (dEC50),WT CXCR4; replicate 1,0.3425
same,Gi BRET (dEC50),WT CXCR4; replicate 2,0.267
same,Gi BRET (dEC50),WT CXCR4; replicate 3,0.275
same,Gαi efficacy increase,Csel2; Csel2 receptor (Fig. 3a),30%
same,Gi BRET (dEC50),Csel2; replicate 1,-0.2255
same,Gi BRET (dEC50),Csel2; replicate 2,-0.0185
same,Gi BRET (dEC50),Csel2; replicate 3,-0.357
full-length V3Y-Y7L: full-length chemokine incorporating the designed N-terminal tail V3Y-Y7L,Migration Index,[1]; donor/replicate 1,4.478
same,Migration Index,[1]; donor/replicate 2,3.833
same,Migration Index,[1]; donor/replicate 3,3.752
same,Migration Index,[1]; donor/replicate 4,3.787
same,Migration Index,[2]; donor/replicate 1,2
same,Migration Index,[2]; donor/replicate 2,2.852
same,Migration Index,[2]; donor/replicate 3,2.992
same,Migration Index,[3]; donor/replicate 1,2.938
same,Migration Index,[3]; donor/replicate 2,2.133
same,Migration Index,[3]; donor/replicate 3,3.389
same,Migration Index,[3]; donor/replicate 4,4.146
same,Migration Index,[3]; donor/replicate 5,3.781
same,Migration Index,[3]; donor/replicate 6,2.587
full-length V3Y: full-length chemokine incorporating the designed N-terminal tail V3Y,Migration Index,[2]; donor/replicate 1,2.294
same,Migration Index,[2]; donor/replicate 2,2.226
same,Migration Index,[2]; donor/replicate 3,3.315
same,Migration Index,[2]; donor/replicate 4,2.878
same,Migration Index,[2]; donor/replicate 5,1.825
same,Migration Index,[4]; donor/replicate 1,4.176
same,Migration Index,[4]; donor/replicate 2,5.188
same,Migration Index,[4]; donor/replicate 3,4.028
full-length WT: full-length WT CXCL12 chemokine [reference compound],Migration Index,[1]; donor/replicate 1,4.556
same,Migration Index,[1]; donor/replicate 2,4.556
same,Migration Index,[1]; donor/replicate 3,4.738
same,Migration Index,[1]; donor/replicate 4,4.774
same,enhanced migration,"[2]; 100 nM WT CXCL12, vs no-attractant controls, WT CXCR4",around 1.5 -fold
same,Migration Index,[2]; donor/replicate 1,1.882
same,Migration Index,[2]; donor/replicate 2,1.899
same,Migration Index,[2]; donor/replicate 3,1.407
same,Migration Index,[2]; donor/replicate 4,0.96
same,Migration Index,[3]; donor/replicate 1,3.533
same,Migration Index,[3]; donor/replicate 2,2.962
same,Migration Index,[3]; donor/replicate 3,2.156
same,Migration Index,[3]; donor/replicate 4,3.087
same,Migration Index,[3]; donor/replicate 5,2.058
same,Migration Index,[4]; donor/replicate 1,3.5
same,Migration Index,[4]; donor/replicate 2,2.758
same,Migration Index,[4]; donor/replicate 3,2.302
